Structures can show the parent of a compound that is named as a salt.
Test system: NMDA receptor
Test: NMDA assay: specific [3H]MK-801 binding to washed rat cerebral cortical membranes
Conditions: 100 μm L-glutamate, 100 μm glycine, 2 nm [3H]MK-801
From the text: FIG. 4 depicts the effects of (HO)2 DEHSPM and DEHSPM on the NMDA receptor (MK-801 binding). Each data point represents the mean ±s.d. of three experiments. Each experiment was, in turn, performed in triplicate. "100% activity" is defined as the amount of specific MK-801 binding to washed rat cerebral cortical membranes in the presence of saturating concentrations of coagonists (100 μm L-glutamate, 100 μm glycine) and 2 nm [^3 H]MK-801.
NMDA Assay. The procedure for measuring specific binding of [^3 H]MK-801 to the N-methyl-D-aspartate receptor complex was a modification of the method of Ransom and Stec [J. Neurochem., Vol. 51, pages 830-836 (1988)]. Cerebral cortices from young male Sprague-Dawley rats (200-300 g) were homogenized with 10 volumes ice-cold 0.32M sucrose using a motor-driven glass/Teflon homogenizer. The homogenate was centrifuged at 1,000 g for 10 minutes and the pellet was discarded. The supernatant was then centrifuged at 18,000 g for 20 minutes. The 18,000 g pellet was then resuspended in 10 volumes buffer A (5 mm Tris-HCl, pH 7.7) at 4° C., homogenized using high-intensity ultrasound and centrifuged at 8,000 for 20 minutes. The supernatant and upper buffy coat of the pellet were combined and centrifuged at 50,000 g for 20 minutes. The pellet was then resuspended in 10 volumes buffer A and homogenized using high-intensity ultrasound. These resuspended membranes were then centrifuged at 50,000 g, discarding the supernatant. The membranes were washed in this manner an additional three times and stored as a frozen suspension at -80° C. for at least 18 hours, but no longer than 2 weeks before use.
For binding experiments, frozen membranes were thawed, pelleted at 50,000 g for 20 minutes and washed as described above, except that 20 volumes of buffer A were used for resuspension, for a total of four times. The final pellet was resuspended in buffer B (5 mm Tris-HCl, pH 7.5) at 23° C. The binding assay mixture was 1.00 ml buffer B containing 200-300 μg membrane protein, 100 μm L-glutamate, 100 μm glycine, 2 nm [^3 H]MK-801 and tetraamine at the following concentrations: 0 ("100%+L-glu,+gly-Control") and 0.05, 0.1, 0.5, 1, 5, 10, 50, 100, 500 and 1,000 μm. Non-specific binding was determined using 100 μm MK-801.
Binding assays were performed in triplicate at 23° C. for one hour and were terminated by filtration through Whatman GF/B glass fiber filters followed by three 4.0 ml rinses of ice-cold buffer B using a Brandel M-48 Cell Harvester.

CCNCC[C@@H](O)CNCCCCNC[C@H](O)CCNCC [(HO)2 DEHSPM, N^1,N^14 -Diethyl-3(R),12(R)-dihydroxyhomospermine tetrahydrochloride]
concentration showing agonist activity on MK-801 binding: 0.5-1.0 μm | concentrations of maximal antagonism of MK-801 binding: ≥ 50 μm | concentrations showing marked antagonist activity on MK-801 binding: above 5 μm
